# Assay results published in US9561233B2, “Use of ibogaine for the treatment of pain” (DemeRX, Inc., priority 2014, dated 2017).
# Experiments:
# [1] = test system: QT interval; test: QT interval of patients treated with ibogaine; assay type: in vivo, human; conditions: higher dosing unacceptable
# Source text: A prolonged QT interval is a marker of potential Torsades de Pointes, a serious arrhythmia that can result in death.
# As used herein, the term “QT interval” refers to the measure of the time between the start of the Q wave and the end of the T wave in the electrical cycle of the heart. Prolongation of the QT interval refers to an increase in the QT interval.
# [2] = test system: pain in patients; test: human clinical studies of ibogaine dosing, alleviation of pain; assay type: in vivo; conditions: lower dosing of ibogaine (lower end of prior-art range 0.01 to 1000 mg/kg body weight)
# Method: While ibogaine has been disclosed for treatment of substance addiction, its use in humans is complicated by the fact that the ranges in the prior art are exceptionally broad (0.01 to 1000 mg/kg body weight).
smiles,measurement,setting,value
CCC1CC2CC3c4[nH]c5ccc(OC)cc5c4CCN(C2)C13 (centres unmarked) [ibogaine],prolongation of the treated patient's QT interval,[1],dose dependent prolongation
same,impact on the alleviation of pain in patients,[2],minimal impact
